Experimental data as given in ChEMBL document CHEMBL1201862, “PubChem BioAssay data set” (2004).
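1) Cells in 96-well plates. 2) Compound, 48 h, 5 concentrations. 3) Linear interpolation between surrounding doses. 4) Unreached endpoint = highest concentration. Here, GI50 denotes the concentration required for 50% inhibition of growth.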 The source made the active and inactive calls. No stated cut-off is given here; in the data, active = GI50 up to about 1.1 µM and inactive = higher.

Tests used:
Assay in all cases: inhibition of tumour cell growth, NCI panel, 48 h
DU-145 = system: DU-145
EKVX = system: EKVX
HOP-62 = system: HOP-62
HOP-92 = system: HOP-92
Hs-578T = system: Hs-578T
IGROV-1 = system: IGROV-1
M14 = system: M14
MDA-N = system: MDA-N
NCI-H460 = system: NCI-H460
NCI-H522 = system: NCI-H522
OVCAR-3 = system: OVCAR-3
OVCAR-5 = system: OVCAR-5
SF-268 = system: SF-268
SF-295 = system: SF-295
SK-MEL-2 = system: SK-MEL-2
SNB-75 = system: SNB-75
T47D = system: T47D
U-251 = system: U-251
UO-31 = system: UO-31
Malme-3M = system: Malme-3M

Measured: GI50

CCOC(=O)c1cc(=O)c2cccc3c2n1CCS3
inactive: DU-145 > 100 µM | EKVX > 100 µM | HOP-62 > 100 µM | HOP-92 > 100 µM | Hs-578T > 100 µM | IGROV-1 > 100 µM | M14 > 100 µM | MDA-N > 100 µM | NCI-H460 83.9 µM | NCI-H522 91.4 µM | OVCAR-3 > 100 µM | OVCAR-5 > 100 µM | SF-268 > 100 µM | SF-295 > 100 µM | SK-MEL-2 > 100 µM | SNB-75 > 100 µM | T47D > 100 µM | U-251 > 100 µM | UO-31 77.8 µM

Cc1ccc(-[n+]2cc([O-])on2)cc1
inactive: DU-145 > 100 µM | EKVX > 100 µM | HOP-62 > 100 µM | HOP-92 64 µM | Hs-578T > 100 µM | IGROV-1 > 100 µM | M14 > 100 µM | MDA-N > 100 µM | Malme-3M > 100 µM | NCI-H460 > 100 µM | NCI-H522 > 100 µM | OVCAR-3 > 100 µM | OVCAR-5 > 100 µM | SF-268 > 100 µM | SF-295 > 100 µM | SK-MEL-2 > 100 µM | T47D > 100 µM | U-251 > 100 µM | UO-31 > 100 µM

CC(=O)N/N=C1\NC(=O)C[C@H]2[C@@H]3CC=C4C[C@@H](OC(C)=O)CC[C@]4(C)[C@H]3CC[C@]12C
inactive: DU-145 74 µM | EKVX 36.1 µM | HOP-62 13.6 µM | HOP-92 15.9 µM | Hs-578T 17.8 µM | IGROV-1 31 µM | M14 30.8 µM | MDA-N 7.16 µM | Malme-3M 39.1 µM | NCI-H522 32.1 µM | OVCAR-3 > 100 µM | OVCAR-5 > 100 µM | SF-268 27.7 µM | SF-295 14.1 µM | SK-MEL-2 47.5 µM | SNB-75 20.9 µM | T47D > 100 µM | U-251 12.8 µM | UO-31 40.6 µM

CC1=C(/C=C/Cl)CC(Cl)C(C)(Cl)C1 (configuration not stated)
inactive: DU-145 > 100 µM | EKVX > 100 µM | HOP-92 53 µM | Hs-578T > 100 µM | IGROV-1 > 100 µM | M14 > 100 µM | MDA-N > 100 µM | Malme-3M > 100 µM | NCI-H460 > 100 µM | NCI-H522 91.2 µM | OVCAR-5 > 100 µM | SF-268 > 100 µM | SF-295 > 100 µM | SK-MEL-2 > 100 µM | SNB-75 > 100 µM | T47D > 100 µM | U-251 > 100 µM | UO-31 > 100 µM

CC(=O)c1cccc(Nc2c3ccccc3nc3occc23)c1
inactive: DU-145 11 µM | EKVX 25.6 µM | HOP-62 3.61 µM | HOP-92 11.5 µM | Hs-578T 5.15 µM | IGROV-1 2.54 µM | M14 4.3 µM | MDA-N 2.58 µM | Malme-3M 4.9 µM | NCI-H460 22.8 µM | NCI-H522 1.54 µM | OVCAR-3 1.82 µM | OVCAR-5 37.2 µM | SF-268 16.1 µM | SF-295 3.83 µM | SK-MEL-2 2.74 µM | T47D 5.14 µM | U-251 5.16 µM | UO-31 12.5 µM

Cc1cc(C)n(CN(CCCCO)Cn2nc(C)cc2C)n1
inactive: DU-145 24.8 µM | EKVX 35.3 µM | HOP-62 21.8 µM | HOP-92 22 µM | Hs-578T > 100 µM | IGROV-1 26.9 µM | M14 18.5 µM | MDA-N 17.5 µM | Malme-3M 22.9 µM | NCI-H460 52.7 µM | NCI-H522 23.8 µM | OVCAR-3 27.9 µM | OVCAR-5 23.2 µM | SF-268 25.6 µM | SF-295 > 100 µM | SK-MEL-2 22.2 µM | T47D 25.6 µM | U-251 22.4 µM | UO-31 27.7 µM

C/C(=N\c1c2ccccc2nc2ccccc12)N(C)C
inactive: DU-145 29 µM | EKVX 32.7 µM | HOP-62 16.5 µM | HOP-92 10.6 µM | Hs-578T 22 µM | IGROV-1 23.9 µM | M14 11.5 µM | MDA-N 21.6 µM | Malme-3M 32.9 µM | NCI-H522 10.7 µM | OVCAR-3 14.4 µM | OVCAR-5 20.5 µM | SF-268 27.4 µM | SF-295 14.8 µM | SK-MEL-2 20 µM | SNB-75 24.1 µM | T47D 20.5 µM | U-251 23 µM | UO-31 9.64 µM

CC1(C)CC2(C)CC1CC2NC(=O)CCN1CCOCC1 (configuration not stated)
inactive: DU-145 > 100 µM | EKVX > 100 µM | HOP-62 > 100 µM | HOP-92 > 100 µM | Hs-578T > 100 µM | IGROV-1 > 100 µM | M14 > 100 µM | MDA-N > 100 µM | Malme-3M > 100 µM | NCI-H460 > 100 µM | NCI-H522 > 100 µM | OVCAR-3 > 100 µM | OVCAR-5 > 100 µM | SF-268 > 100 µM | SF-295 > 100 µM | SNB-75 > 100 µM | T47D > 100 µM | U-251 > 100 µM | UO-31 > 100 µM

COc1ccc(C2SC(=N)Nc3c2c(C)nn3C(=O)c2ccc(Cl)cc2)cc1OC (configuration not stated)
inactive: DU-145 > 10 µM | EKVX > 10 µM | HOP-62 > 10 µM | HOP-92 > 10 µM | Hs-578T > 10 µM | IGROV-1 > 10 µM | M14 > 10 µM | MDA-N > 10 µM | Malme-3M > 10 µM | NCI-H460 > 10 µM | NCI-H522 > 10 µM | OVCAR-3 > 10 µM | OVCAR-5 > 10 µM | SF-268 > 10 µM | SF-295 > 10 µM | SK-MEL-2 > 10 µM | SNB-75 > 10 µM | T47D > 10 µM | U-251 > 10 µM

Cc1nnc2n1N=C(c1cc(F)c(Cl)cc1Cl)/C(=C/c1ccc3c(c1)OCO3)S2
inactive: DU-145 72.8 µM | EKVX 23.1 µM | HOP-62 37.1 µM | HOP-92 65.8 µM | Hs-578T 71.6 µM | IGROV-1 50.7 µM | M14 > 100 µM | MDA-N 39.3 µM | Malme-3M > 100 µM | NCI-H460 > 100 µM | NCI-H522 20.7 µM | OVCAR-3 34.4 µM | OVCAR-5 32.1 µM | SF-268 88.9 µM | SF-295 53.3 µM | SK-MEL-2 44 µM | T47D 70.6 µM | U-251 56.6 µM | UO-31 > 100 µM

COc1ccc(CCN2CCOCC2)cc1
inactive: DU-145 > 100 µM | EKVX > 100 µM | HOP-62 > 100 µM | HOP-92 > 100 µM | Hs-578T > 100 µM | IGROV-1 > 100 µM | M14 > 100 µM | MDA-N > 100 µM | Malme-3M > 100 µM | NCI-H460 > 100 µM | NCI-H522 > 100 µM | OVCAR-3 41.8 µM | OVCAR-5 > 100 µM | SF-268 > 100 µM | SF-295 > 100 µM | SK-MEL-2 > 100 µM | T47D > 100 µM | U-251 > 100 µM | UO-31 > 100 µM

COc1cc(COC(=O)N[C@H](C(=O)O)C(C)(C)C)c([N+](=O)[O-])cc1OC
inactive: DU-145 > 100 µM | EKVX > 100 µM | HOP-62 > 100 µM | HOP-92 > 100 µM | Hs-578T > 100 µM | IGROV-1 > 100 µM | M14 > 100 µM | MDA-N > 100 µM | Malme-3M > 100 µM | NCI-H460 > 100 µM | OVCAR-3 > 100 µM | OVCAR-5 > 100 µM | SF-268 > 100 µM | SF-295 > 100 µM | SNB-75 > 100 µM | T47D > 100 µM | U-251 > 100 µM | UO-31 > 100 µM

COc1ccc(OC)c(NC(=O)c2c(Cl)c(Cl)c(Cl)c(Cl)c2-c2nc3ccccc3[nH]2)c1
inactive: DU-145 > 100 µM | EKVX > 100 µM | HOP-62 > 100 µM | HOP-92 > 100 µM | Hs-578T > 100 µM | IGROV-1 89.1 µM | M14 > 100 µM | MDA-N > 100 µM | Malme-3M > 100 µM | NCI-H460 > 100 µM | NCI-H522 > 100 µM | OVCAR-3 > 100 µM | OVCAR-5 > 100 µM | SF-268 > 100 µM | SF-295 > 100 µM | SNB-75 > 100 µM | T47D > 100 µM | UO-31 > 100 µM

Nc1ccc(S2(c3ccc(N)cc3)C=C(c3ccccc3)C(c3ccccc3)=C2)cc1
inactive: DU-145 > 38.4 µM | EKVX > 100 µM | HOP-62 70.8 µM | HOP-92 18.1 µM | Hs-578T > 100 µM | IGROV-1 > 100 µM | M14 > 72.8 µM | MDA-N > 30.2 µM | Malme-3M > 100 µM | NCI-H460 > 22.4 µM | OVCAR-3 > 100 µM | OVCAR-5 > 65.6 µM | SF-268 > 44.5 µM | SF-295 16.4 µM | SK-MEL-2 > 26.6 µM | SNB-75 > 100 µM | T47D > 100 µM | U-251 > 25 µM | UO-31 > 40.6 µM

N#Cc1cc(-c2nc3ccc(F)cc3s2)ccc1N
inactive: DU-145 > 100 µM | EKVX 31.8 µM | HOP-62 72.1 µM | HOP-92 > 100 µM | Hs-578T > 100 µM | IGROV-1 3.27 µM | M14 > 100 µM | MDA-N 22.1 µM | Malme-3M 35.3 µM | NCI-H460 > 100 µM | NCI-H522 > 100 µM | OVCAR-3 > 100 µM | OVCAR-5 > 100 µM | SF-268 > 100 µM | SF-295 > 100 µM | SNB-75 14.7 µM | T47D > 100 µM | U-251 63 µM | UO-31 > 100 µM
